Measurements as given in US7595329B2, “Benzimidazolone carboxylic acid derivatives” (Pfizer Inc, priority 2004, dated 2009).

Molecule `CC(C)n1c(=O)n(C(=O)NCC2CCN(CC3(C(=O)O)CC3)CC2)c2ccccc21.Cl` has a melting point of 206 °C. `CC(C)n1c(=O)n(C(=O)NCC2CCN(CC3(C(=O)O)CCOCC3)CC2)c2ccccc21` [Example 1, 4-{[4-({[(3-isopropyl-2-oxo-2,3-dihydro-1H-benzimidazol-1-yl)carbonyl]amino}methyl)piperidin-1-yl]methyl}tetrahydro-2H-pyran-4-carboxylic acid] showed a melting point of 176 °C. `CC(C)n1c(=O)n(C(=O)NCC2CCN(CC3(C(=O)O)CCCCC3)CC2)c2ccccc21` [Example 2, 1-{[4-({[(3-isopropyl-2-oxo-2,3-dihydro-1H-benzimidazol-1-yl)carbonyl]amino}methyl)piperidin-1-yl]methyl}cyclohexanecarboxylic acid] gave a melting point of 151 °C. Work on `CC(C)n1c(=O)n(C(=O)NCC2CCN(CC3(C(=O)O)CCCC3)CC2)c2ccccc21` [Example 3, 1-{[4-({[(3-isopropyl-2-oxo-2,3-dihydro-1H-benzimidazol-1-yl)carbonyl]amino}methyl)piperidin-1-yl]methyl}cyclopentanecarboxylic acid] yielded a melting point of 165 °C. In the case of `CC(C)n1c(=O)n(C(=O)NCC2(O)CCN(CC3(C(=O)O)CCCCC3)CC2)c2ccccc21` [Example 6, 1-{[4-hydroxy-4-({[(3-isopropyl-2-oxo-2,3-dihydro-1H-benzimidazol-1-yl)carbonyl]amino}methyl)piperidin-1-yl]methyl}cyclohexanecarboxylic acid], the melting point is reported as 184 °C.
